# Assay results as given in article PMC11475281, “A Novel Liver Cancer-Selective Histone Deacetylase Inhibitor Is Effective against Hepatocellular Carcinoma and Induces Durable Responses with Immunotherapy” (ACS Pharmacology & Translational Science, 2024).
# What was measured:
# Format in all cases: cell-based, human
# Hep-G2 cells [1] = assay: Immunoblotting of PD-L1 and PD-1 expression; conditions: 24 h, SAHA 5 and 10 μM, STR-V-53 10 and 20 μM
# Procedure: (§1) Figure 3 Effects of STR-V-53 on intracellular markers of HDAC inhibition, antitumor immune response, and apoptosis. (a) STR-V-53 upregulates the levels of acetylated H4 and tubulin in Hep-G2 cells. Hep-G2 cells were treated with DMSO or 0.1% DMSO solution of SAHA (1.25 μM) and STR-V-53 (1.25 μM, 2.5 μM). Cells were treated for 5 h before lysis. Data are from two independent experiments. (b) STR-V-53 upregulates PD-L1 and downregulates PD-1 expressions in Hep-G2 cells. Cells were treated with DMSO or 0.1% DMSO solution of SAHA (5 μM and 10 μM) and STR-V-53 (10 and 20 μM) for 24 h. (c) STR-V-53 and SAHA caused upregulation of the levels of CD54 in the Hep-G2 cell line. Cells were treated with DMSO or 0.1% DMSO solution of SAHA (5 and 10 μM) and STR-V-53 (5, 10, and 20 μM) for 24 h. […] Cells were treated with DMSO or 0.1% DMSO solution of SAHA (5 μM) and STR-V-53 (10 and 20 μM).
# One of the consequences of histone deacetylase inhibition is the alteration of tumor immunogenicity in favor of enhanced antitumor immune responses.[28],[29] Specifically, HDACi robustly upregulates PD-L1 in human and murine cell lines and patient tumors.[30],[31] To investigate the effects of our glycosylated HDACi on immune checkpoint molecules, we used immunoblotting to probe for the expression levels of PD-L1 and PD-1 in Hep-G2 cells incubated with lead compound STR-V-53 for 24 h. We used SAHA and DMSO as positive and negative controls, respectively.
# Hep-G2 cells [2] = assay: Immunoblotting of CD54 (ICAM-1) expression; conditions: 24 h, STR-V-53 at IC50 and 2× IC50
# Procedure: as §1
# HDACi regulates the expression levels of other tumor antigens such as CD40, CD54 (ICAM-1), CD80, and CD86 in tumor cells.[32]−[35] More specifically, the repression of CD54 expression is another strategy tumors use to escape the immune response.[36] […] To investigate the effect of our glycosylated HDACi on the expression of CD54, we incubated Hep-G2 cells with STR-V-53 at IC50 and 2× IC50 for 24 h. We used immunoblotting to determine the effect of this treatment on CD54 expression. […]
# Hep-G2 HCC cells = assay: Cell cycle analysis by flow cytometry; conditions: 48 h
# Procedure: To determine if the HCC cell selective cytotoxicity of STR-V-53 results from its perturbation of the cell cycle pattern, we evaluated the effect of STR-V-53 on the cycle progression by flow cytometry using SAHA as a control (Figure 4).
# Figure 4 Effect of STR-V-53 treatment on HCC cell cycle progression. (a–c) Human Hep-G2 HCC cells were cultured until 80% confluence in a 10 cm Petri dish. The cells were serum-starved overnight before drug treatment. Then, the cells were treated with 10 mL of 0.1% DMSO medium and 0.1% DMSO solution of SAHA (5 μM) or STR-V-53 (15 μM) for 48 h. Control group (ai); SAHA (5 μM)-treated group (aii), and STR-V-53 (15 μM)-treated group (aiii and biii). (c) Quantification of the cell cycle data from two independent experiments. Bars show mean plus standard deviation; *P < 0.0332; **P < 0.0021; ***P < 0.0002; ****P < 0.00001.
# MIDI 4-20% gel (Biorad, cat. 5671093) and ran at 150 V for 70 min. […] After washing with TBS-T 3x5 mins, bands were quantified using the Odyssey CLx Image system.
# Hep-G2 or VERO cells were seeded (2500 to 4,000 counts/well) into 96-well plates, in which each well contains 100 µL media. […] After 2.5-4 h incubation, the plates were read using a multiplate reader at 490 nm. […]
# Then cells were treated with another 500 µL of 100 ug/mL PI staining at room temperature for 30 min. The cell cycle was analyzed with BD FACS Aria Illu analyzer, and the data were […]
SMILES,PD-1 expression level (Hep-G2 cells [1]),PD-L1 expression level (Hep-G2 cells [1]),CD54 expression (Hep-G2 cells [2]),Cell cycle progression (Hep-G2 HCC cells; 15 μM),Cell cycle progression (Hep-G2 HCC cells; 5 μM)
O=C(CCCCCCn1cc(-c2ccc(O[C@H]3O[C@H](CO)[C@@H](O)[C@H](O)[C@H]3O)cc2)nn1)NO [STR-V-53],downregulate,upregulate,upregulated,significant S phase arrest,–
"O=C(CCCCCCC(=O)Nc1ccccc1)NO [SAHA, vorinostat, reference compound]",downregulate,upregulate,upregulated,–,significant S phase arrest
